Assay results: patent US6440899B1, “Cyclohexenonedioxothiochromanoyl derivatives” (BASF Aktiengesellschaft, priority 1998, dated 2002)

Assays:
Assay in all cases: greenhouse post-emergence herbicidal test
Format in all cases: in vivo
Details in all cases: applied post-emergence, rates of application of 0.5 and 0.25 kg/ha, respectively
[1] = test system: Setaria faberi
Excerpt: (§1) The seeds of the test plants were sown separately for each species. For the post-emergence treatment, the test plants were first grown to a height of 3 to 15 cm, depending on the plant habit, and only then treated with the active compounds which had been suspended or emulsified in water. For this purpose, the test plants were either sown directly and grown in the same containers, or they were first grown separately as seedlings and transplanted into the test containers a few days prior to treatment. The rate of application for the post-emergence treatment was 0.5 or 0.25 kg/ha of a.s. (active substance). Depending on the species, the plants were kept at 10-25° C. or 20-35° C. The test period extended over 2 to 4 weeks. During this time, the plants were tended, and their response to the individual treatments was evaluated. Evaluation was carried out using a scale from 0 to 100. 100 means no emergence of the plants, or complete destruction of at least the aerial parts, and 0 means no damage, or normal course of growth. The plants used in the greenhouse experiments belonged to the following species: [table]

[2] = test system: Galium aparine
Excerpt: as §1

[3] = test system: Setaria viridis
Excerpt: as §1

[4] = test system: Chenopodium album
Excerpt: as §1

[5] = test system: Echinochloa crus-galli
Excerpt: as §1

[6] = test system: Sinapis alba
Excerpt: as §1

[7] = test system: Solanum nigrum
Excerpt: as §1

Measured: herbicidal activity

Cc1c(C(=O)C2=C(Cl)C(C)(C)C(=O)C(C)(C)C2=O)ccc2c1S(=O)(=O)CCS2(=O)=O [Compound 4.1, 1-Chloro-2-[(8-methyl-2,3-dihydro-1,1,4,4-tetraoxobenz[1,4]dithiyn-7-yl)carbonyl]-4,4,6,6-tetramethyl-1-cyclohexene-3,5-dione]
very good activity: all assays above
